Patent publication US6710190B1, “3-heteroarylalkyl substituted gaba analogs” (Warner-Lambert Company, priority 1999, dated 2004)
pIC50: −log10 of the molar value. Where two headings read alike, the source gives them in different places.

Assays:
[1] = system: sound-induced tonic seizures in DBA/2 mice; assay: DBA2 mouse model: prevention of audiogenic seizures in DBA/2 mice; format: in vivo; set-up: concentration or dose not given beside the values; details: for DBA2 Mouse Model % Protect (1h): 1h after oral dosing; for DBA2 Mouse Model % Protect (2h): 2h after oral dosing
Method: All procedures were carried out in compliance with the NIH Guide for the Care and Use of Laboratory Animals under a protocol approved by the Parke-Davis Animal Use Committee. Male DBA/2 mice, 3 to 4 weeks old, were obtained from Jackson Laboratories, Bar Harbour, Me. Immediately before anticonvulsant testing, mice were placed upon a wire mesh, 4 inches square suspended from a steel rod. The square was slowly inverted through 180 degrees and mice observed for 30 seconds. Any mouse falling from the wire mesh was scored as ataxic.
Mice were placed into an enclosed acrylic plastic chamber (21 cm height, approximately 30 cm diameter) with a high-frequency speaker (4 cm diameter) in the center of the top lid. An audio signal generator (Protek model B-180) was used to produce a continuous sinusoidal tone that was swept linearly in frequency between 8 kHz and 16 kHz once each 10 msec. The average sound pressure level (SPL) during stimulation was approximately 100 dB at the floor of the chamber. Mice were placed within the chamber and allowed to acclimatize for 1 minute. DBA/2 mice in the vehicle-treated group responded to the sound stimulus (applied until tonic extension occurred, or for a maximum of 60 seconds) with a characteristic seizure sequence consisting of wild running followed by clonic seizures, and later by tonic extension, and finally by respiratory arrest and death in 80% or more of the mice. In vehicle-treated mice, the entire sequence of seizures to respiratory arrest lasts approximately 15 to 20 seconds.
The incidence of all the seizure phases in the drug-treated and vehicle-treated mice was recorded, and the occurrence of tonic seizures were used for calculating anticonvulsant ED50 values by probit analysis. Mice were used only once for testing at each dose point. […] All drugs in the present study were dissolved in distilled water and given by oral gavage in a volume of 10 mL/kg of body weight. compounds that are insoluble will be suspended in 1% carboxymethocellulose. Doses are expressed as weight of the active drug moiety.

[2] = target: T1, α2δ subunit derived from porcine brain tissue (Sus scrofa, UniProt A0A287BIN3); assay: [3H]gabapentin radioligand binding assay (α2δ assay)
T1 construct: the α2δ subunit derived from porcine brain tissue was used; from tissue; host or cells: porcine brain tissue
T1 sequence (A0A287BIN3 25-1109): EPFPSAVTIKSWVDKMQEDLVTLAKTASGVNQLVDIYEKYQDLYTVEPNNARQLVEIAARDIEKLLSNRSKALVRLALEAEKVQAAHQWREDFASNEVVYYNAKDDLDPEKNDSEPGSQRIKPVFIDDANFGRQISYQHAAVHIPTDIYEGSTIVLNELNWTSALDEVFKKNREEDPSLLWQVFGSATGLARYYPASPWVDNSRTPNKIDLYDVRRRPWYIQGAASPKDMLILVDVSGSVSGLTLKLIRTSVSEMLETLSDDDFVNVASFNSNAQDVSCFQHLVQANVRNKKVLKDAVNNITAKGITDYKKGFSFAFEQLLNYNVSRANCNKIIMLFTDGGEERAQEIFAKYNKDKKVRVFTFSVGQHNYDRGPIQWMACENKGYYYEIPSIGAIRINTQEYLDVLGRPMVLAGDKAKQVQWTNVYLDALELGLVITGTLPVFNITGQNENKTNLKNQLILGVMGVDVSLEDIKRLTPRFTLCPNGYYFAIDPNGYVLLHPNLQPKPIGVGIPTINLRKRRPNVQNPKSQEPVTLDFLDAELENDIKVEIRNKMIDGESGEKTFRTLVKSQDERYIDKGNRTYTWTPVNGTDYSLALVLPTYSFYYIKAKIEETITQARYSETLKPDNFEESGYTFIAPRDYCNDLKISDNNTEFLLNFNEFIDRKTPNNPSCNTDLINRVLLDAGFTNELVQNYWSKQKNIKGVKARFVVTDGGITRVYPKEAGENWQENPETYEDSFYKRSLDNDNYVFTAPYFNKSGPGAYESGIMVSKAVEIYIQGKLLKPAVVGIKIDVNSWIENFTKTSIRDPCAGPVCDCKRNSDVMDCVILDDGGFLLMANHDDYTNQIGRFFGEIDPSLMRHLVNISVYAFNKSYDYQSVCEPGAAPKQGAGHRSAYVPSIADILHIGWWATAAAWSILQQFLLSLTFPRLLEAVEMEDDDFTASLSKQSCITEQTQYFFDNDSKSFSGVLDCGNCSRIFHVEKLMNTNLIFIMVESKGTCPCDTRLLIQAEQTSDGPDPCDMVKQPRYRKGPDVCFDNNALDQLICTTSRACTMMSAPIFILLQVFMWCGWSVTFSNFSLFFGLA

[3] = system: carrageenan-induced thermal hyperalgesia in the rat; assay: Pain model: carrageenan-induced thermal hyperalgesia in the rat (plantar test); format: in vivo; details: for Pain Model % MPE 1 h: 1 h after oral administration; for Pain Model % MPE 2h: 2 h after oral administration
Method: Male Sprague-Dawley rats (180-250 g) were obtained from Bantin and Kingman, (Hull, U.K.). Animals were housed in groups of 6 to 10 under a 12 hour light/dark cycle (lights on at 7 hours, 0 minutes) with food and water ad libitum.
Thermal hyperalgesia was assessed using the rat plantar test (Ugo Basile, Italy) following a modified method of Hargreaves, et al., 1988. Rats were habituated to the apparatus which consisted of three individual perspex boxes on an elevated glass table. A mobile radiant heat source located under the table was focused onto the desired paw and paw withdrawal latencies (PWL) recorded. PWL were taken 3 times for both hind paws of each animal, the mean of which represented baselines for right and left hind paws. At least 5 minutes were allowed between each PWL for an animal. The apparatus was calibrated to give a PWL of approximately 10 seconds. There was an automatic cutoff point of 20 seconds to prevent tissue damage. After baseline PWLs were determined, animals received an intraplantar injection of carrageenan (100 μL of 20 mg/mL) into the right hind paw. PWLs were reassessed following the same protocol as above 2-hour post-carrageenan (this time point represented the start of peak hyperalgesia) to ascertain that hyperalgesia had developed. Test compounds were administered orally (in a volume of 1 mL/kg) at 2.5 hours after carrageenan. PWLs were reassessed at various times after drug administration.

| pIC50 ([2]; read-out: α2δ Assay IC50) | SMILES | DBA2 Mouse Model % Protect (1h) [1] [%] | DBA2 Mouse Model % Protect (2h) [1] [%] | pIC50 [2] | Pain Model % MPE 1 h [3] [%] | Pain Model % MPE 2h [3] [%] |
| --- | --- | --- | --- | --- | --- | --- |
|  | NCC(CC(=O)O)Cc1ccco1 (stereo not shown) | 0 | 20 | 6.38 | 61.6 | 24.9 |
| 6.08 | NCC(CC(=O)O)Cc1ccsc1 (stereo not shown) | 40 | 60 |  |  |  |
| 5.57 | NCC(CC(=O)O)Cc1cccs1 (stereo not shown) | 20 | 40 |  | 31.9 | 18.1 |
